Source: ChEMBL document CHEMBL1201862, “PubChem BioAssay data set” (2004)
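Cells were grown in 96-well plates and exposed to each compound for 48 hours at five concentrations; endpoints were interpolated linearly between bracketing concentrations, or set to the highest concentration if not reached. At the GI50, growth is halved.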 The source made the active and inactive calls. Cut-off read from the data, not from the text of the source: active = GI50 up to about 1.1 µM and inactive = higher.

How the values were obtained:
Test in all cases: inhibition of tumour cell growth, NCI panel, 48 h
[1] = system: NCI-H226
[2] = system: NCI-H522
[3] = system: KM12
[4] = system: A498
[5] = system: RPMI-8226
[6] = system: NCI-H460
[7] = system: SN12C
[8] = system: IGROV-1
[9] = system: M19-MEL
[10] = system: K562
[11] = system: 786-0
[12] = system: SF-268
[13] = system: EKVX
[14] = system: OVCAR-5
[15] = system: CCRF-CEM
[16] = system: OVCAR-3

Structure (SMILES)	GI50 [1]	GI50 [2]	GI50 [3]	GI50 [4]	GI50 [5]	GI50 [6]	GI50 [7]	GI50 [8]	GI50 [9]	GI50 [10]	GI50 [11]	GI50 [12]	GI50 [13]	GI50 [14]	GI50 [15]	GI50 [16]
CC1(n2nc(-c3ccccc3)n(-c3ccccc3)c2=O)CSC1	> 100 µM (inactive)	> 100 µM (inactive)	> 100 µM (inactive)	38.2 µM (inactive)	> 100 µM (inactive)	> 100 µM (inactive)	> 100 µM (inactive)	> 100 µM (inactive)	> 100 µM (inactive)	> 100 µM (inactive)	> 100 µM (inactive)	> 100 µM (inactive)	> 100 µM (inactive)	> 100 µM (inactive)	> 100 µM (inactive)	
Clc1ccc2c(Cl)nc(-c3ccccc3)nc2c1	13.2 µM (inactive)		36.8 µM (inactive)	37.4 µM (inactive)	10 µM (inactive)	24.3 µM (inactive)	21.8 µM (inactive)	24.5 µM (inactive)	47.1 µM (inactive)	23.4 µM (inactive)		24.9 µM (inactive)	11.4 µM (inactive)	51.8 µM (inactive)	22.9 µM (inactive)	17.2 µM (inactive)
CS/C(=N\c1ccccc1)N(c1ccccc1)c1nc(=[N+](C)C)ss1.[O-][Cl+3]([O-])([O-])[O-]	10 µM (inactive)	0.353 µM (active)	2.65 µM (inactive)	12.4 µM (inactive)	0.22 µM (active)	0.0338 µM (active)	3.2 µM (inactive)	1.22 µM (inactive)	0.0877 µM (active)	0.27 µM (active)	5.66 µM (inactive)	5.13 µM (inactive)	15.3 µM (inactive)	15.3 µM (inactive)	0.508 µM (active)	1.66 µM (inactive)
COc1cc(OC)c(C#N)c(OC)c1C	> 100 µM (inactive)		> 100 µM (inactive)	> 100 µM (inactive)		> 100 µM (inactive)	> 100 µM (inactive)		> 100 µM (inactive)	> 100 µM (inactive)	> 100 µM (inactive)	> 100 µM (inactive)	> 100 µM (inactive)	98.4 µM (inactive)	> 100 µM (inactive)	
O=CC1CCCc2ccccc21 (stereo unspecified)	> 100 µM (inactive)	> 79.6 µM (inactive)	> 100 µM (inactive)	> 100 µM (inactive)	> 43.1 µM (inactive)	> 61.8 µM (inactive)	> 100 µM (inactive)	> 100 µM (inactive)	> 100 µM (inactive)	> 60 µM (inactive)	> 100 µM (inactive)	> 31.6 µM (inactive)	> 100 µM (inactive)	> 100 µM (inactive)	> 49.7 µM (inactive)	> 100 µM (inactive)
O=C1CCC(=O)c2cc(Br)ccc2N1	> 100 µM (inactive)	> 100 µM (inactive)	> 100 µM (inactive)	> 100 µM (inactive)	> 67.5 µM (inactive)	> 100 µM (inactive)	> 100 µM (inactive)	> 100 µM (inactive)	> 70.5 µM (inactive)	> 100 µM (inactive)	> 100 µM (inactive)	> 100 µM (inactive)	> 63.2 µM (inactive)	> 100 µM (inactive)	> 68.9 µM (inactive)	> 100 µM (inactive)
O=P(Nc1cccc(Cl)c1)(Oc1ccccc1)N(CCCl)CCCl (stereo unspecified)	15 µM (inactive)	99.5 µM (inactive)	14.8 µM (inactive)	14.4 µM (inactive)			14.9 µM (inactive)	15.8 µM (inactive)	18 µM (inactive)	99.3 µM (inactive)		15.1 µM (inactive)	17.7 µM (inactive)	14.5 µM (inactive)	> 100 µM (inactive)	14.2 µM (inactive)
COc1ccc(C2C(Cl)C(=O)N2NC(=O)c2ccc(N)cc2)cc1 (stereo unspecified)	> 100 µM (inactive)	> 100 µM (inactive)	> 100 µM (inactive)	> 100 µM (inactive)	> 100 µM (inactive)	> 100 µM (inactive)	> 100 µM (inactive)	> 100 µM (inactive)	> 100 µM (inactive)	> 100 µM (inactive)	> 100 µM (inactive)		> 100 µM (inactive)	> 100 µM (inactive)	93.5 µM (inactive)	> 100 µM (inactive)
Cc1ccc2c(c1CCCC(C)(C)O)C(=O)C(O)=C(C(C)C)C2=O	> 100 µM (inactive)	> 100 µM (inactive)	> 100 µM (inactive)	> 100 µM (inactive)	39.1 µM (inactive)	47.2 µM (inactive)	78.3 µM (inactive)	90.4 µM (inactive)	96.6 µM (inactive)	48.1 µM (inactive)	> 100 µM (inactive)	59.4 µM (inactive)	47.2 µM (inactive)		32.2 µM (inactive)	66.7 µM (inactive)
CCOC(=O)CC(=O)ON(C)C(=O)Cc1ccccc1	> 100 µM (inactive)	> 100 µM (inactive)	> 100 µM (inactive)	> 100 µM (inactive)	> 100 µM (inactive)	> 100 µM (inactive)	> 100 µM (inactive)	> 100 µM (inactive)	> 100 µM (inactive)		> 100 µM (inactive)	> 100 µM (inactive)	> 100 µM (inactive)	> 100 µM (inactive)	> 100 µM (inactive)	> 100 µM (inactive)
CC(C)=CC(=O)OC1C2C(C)C(=O)OC2C(O)C(C)C2C=CC(=O)C21C (stereo unspecified)	5.22 µM (inactive)	0.569 µM (active)	4.03 µM (inactive)	2.05 µM (inactive)	1.48 µM (inactive)	1.96 µM (inactive)	3.69 µM (inactive)	3.33 µM (inactive)	3.01 µM (inactive)	2.14 µM (inactive)		1.57 µM (inactive)	2.92 µM (inactive)	7.83 µM (inactive)	0.802 µM (active)	2.75 µM (inactive)
Cc1cc(N(CCC#N)CCC#N)ccc1/N=N/c1cccc(C(=O)O)c1	> 100 µM (inactive)	38.8 µM (inactive)	> 100 µM (inactive)	> 100 µM (inactive)			> 100 µM (inactive)	> 100 µM (inactive)	> 100 µM (inactive)	> 100 µM (inactive)	> 100 µM (inactive)	> 100 µM (inactive)	> 100 µM (inactive)	> 100 µM (inactive)	> 100 µM (inactive)	56 µM (inactive)
CC(C)CCCCCCCCCCCCC(=O)NCC(=O)NC1C(C)OC(Nc2ncnc3c2ncn3C)C(O)C1O (stereo unspecified)	2.16 µM (inactive)	6.7 µM (inactive)	5.47 µM (inactive)	4.15 µM (inactive)	2.43 µM (inactive)	3.09 µM (inactive)	3.5 µM (inactive)	2.94 µM (inactive)	11.4 µM (inactive)	> 73.3 µM (inactive)		3.21 µM (inactive)	> 100 µM (inactive)	7.33 µM (inactive)	> 100 µM (inactive)	3.52 µM (inactive)
COc1ccc(C2Oc3cc(OC)c(O)cc3[C@@H]2C)cc1 (stereo partly specified)	17.2 µM (inactive)	16.5 µM (inactive)	45 µM (inactive)	> 100 µM (inactive)	22.3 µM (inactive)	57.9 µM (inactive)		> 10 µM (inactive)	> 10 µM (inactive)	31.5 µM (inactive)	17.1 µM (inactive)	48.8 µM (inactive)	56.4 µM (inactive)	> 100 µM (inactive)	15.5 µM (inactive)	26.5 µM (inactive)
